Values after ≈ are worked out from the molar mass of the structure shown. Where two headings read alike, the source gives them in different places. Residues, ends and D or L forms follow the SMILES beside them.
Legend:
[1] = Liposome sedimentation assay; format: binding; conditions: 20 μM peptide, 30 min room temperature, 200,000 × g, SDS-PAGE
Experimental: To prepare the liposomes, phospholipids DMPC and Cardiolipin purchased from Avanti Polar Lipids (Alabaster, AL, USA) were dissolved in Chloroform:Methanol:Water in the ratio of (65:25:4) and (73:23:3) respectively, and dried under vacuum for 1 h. The lipid film was suspended in the assay buffer (20 mM HEPES, 150 mM NaCl, pH 7.0), vortexed, and sonicated for 15 min to form the liposomes. The assay was carried out by incubating 2 mM of the liposomes with 20 μM of NCR169C17–38 peptide and incubated for 30 min at room temperature, followed by ultracentrifugation at 200,000 × g for 15 min at 20 °C. After centrifugation, the supernatant (sn) and pellet (p) fractions were collected separately and were subjected to glycine-SDS-PAGE. The peptides were detected by Coomassie Brilliant Blue staining.
Prepared liposomes were incubated with NCR169C17–38, then separated by ultracentrifugation. Peptide remaining in the supernatant (sn) fraction indicated no binding, whereas peptide detected in the pellet (p) fraction indicated liposome association.

Cryptococcus neoformans = conditions: ref Szerencsés et al., 2025; cited from earlier work
Description: (§1) NCR169 is another NCR peptide essential for differentiation of nitrogen fixing bacteroids in Medicago species ([Horváth et al., 2015]). This 38-amino-acid peptide contains four cysteines that are critical for its symbiotic function in planta.

Candida species = conditions: ref Szerencsés et al., 2021; cited from earlier work
Description: as §1

[2] = test system: human keratinocyte HaCaT cells; conditions: cited from earlier work
Proteinase K = Proteinase K (Parengyodontium album, UniProt P06873); test: Proteinase K treatment of peptide-DNA samples (recovery of SYBR Gold fluorescence); conditions: Proteinase K 1 mg/ml added at 27 min to peptide-DNA-SYBR Gold samples, 10 µM peptide
Proteinase K, sequence (P06873 106-384): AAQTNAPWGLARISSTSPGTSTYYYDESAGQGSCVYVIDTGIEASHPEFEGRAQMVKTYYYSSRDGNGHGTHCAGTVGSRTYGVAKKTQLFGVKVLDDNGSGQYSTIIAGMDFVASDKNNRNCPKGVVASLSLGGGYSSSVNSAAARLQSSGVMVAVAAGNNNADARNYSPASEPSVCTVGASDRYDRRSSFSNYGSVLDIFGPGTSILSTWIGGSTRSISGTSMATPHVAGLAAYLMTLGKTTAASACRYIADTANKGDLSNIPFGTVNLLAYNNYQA
Experimental: (§2) In addition, DNA-binding kinetics were monitored in real time using a Hidex Sense plate reader at room temperature in three independent experiments. Reaction mixtures contained 100 ng of HindIII-digested lambda phage DNA in 1 × SYBR Gold (Thermo Scientific), either without peptide or with 10 µM of NCR169C17–38 (2.74041 µg), NCR169 (4.56545 µg), NCR169_16–27 (1.56597 µg), or NCR169_17–27 (1.40279 µg). Peptides were added either at the start (0 min) or at 14 min. Fluorescence from DNA-bound SYBR Gold was measured every 3 min (excitation 490 nm, emission 535 nm). At 27 min, proteinase K (1 mg/ml; 100 µg final) was added to peptide-treated samples to assess the effect on peptide–DNA binding. Experiments were done in three biological replicates.
(§3) The DNA-binding kinetics were quantified using SYBR Gold fluorescence (Fig. 3.D). […] To test if peptide removal would recover the DNA–SYBR Gold fluorescence to control values, Proteinase K was added at 27 min to all reactions. […] In contrast, fluorescence values in the NCR169 samples remained unchanged, while those of NCR169C17–38 or NCR169_17–27 increased slightly and gradually to the same limited extent.

[3] = test system: Acinetobacter baumannii pre-formed biofilm; test: microbe, parasite or virus in culture; format: cell-based; conditions: for MBC: 24 h
Experimental: For the biofilm eradication assay the difference was at the beginning of the experiments when bacteria were pre-cultured for 24 h or 72 h in MHB with a starting OD600 = 0.01. Then bacterial suspensions were removed from the wells followed by washing three times with 200 µl of 1/2 MHB. Subsequently fresh 1/10 MHB was added to the wells containing the respective dilutions of NCR169C17–38, meropenem or polymixin B and the treatment lasted either 3 h or 24 h. Experiments were done in three biological replicates.
To assess whether the NCR169C17–38 peptide or the tested antibiotics could eradicate pre-formed biofilms, A. baumannii was first cultured in MHB for 24 h, then treated with NCR169C17–38, meropenem or polymyxin B for either 3 h or 24 h, using the same concentration range as in the previous experiment. Both bacterial survival within the pre-formed biofilm and the amount of residual biofilm were assessed. […] In contrast, neither of the two antibiotics completely eliminated the bacteria within the tested concentration range. […] This 24 h of treatment was repeated on mature biofilm (pre-formed for 72 h) and the results were very similar (Supplementary Fig. 1.).

A. baumannii = format: cell-based, Acinetobacter baumannii; conditions: 8 h
Experimental: (§4) For serum stability test human blood was purchased from the Regional Blood Centre in Szeged (the use of human blood has been authorized by the Regional Hungarian Ethics Committee and approved by the Ethics Review Sector of DG RTD (European Commission) in connection with EK’s ERC AdG SymBiotics). The cells from 10 ml of EDTA-blood were centrifuged at 1500 × g for 1 min and washed several times in TBS buffer (10 mM Tris, pH: 7.2, 150 mM NaCl) until the supernatant, representing the serum, became colorless. The NCR169C17–38 peptide was added to the serum at 1:1 ratio and incubated at room temperature for 8 h. Subsequently, serial 2-fold dilutions of the peptide were prepared in PPB, with concentrations ranging from 100 to 0.2 µM and antimicrobial assay was done to determine the MBC values. Experiments were done in three biological replicates.

[4] = test system: mouse macrophage J774.2 cells; conditions: cited from earlier work
S. aureus = format: cell-based, Staphylococcus aureus; conditions: 8 h
Experimental: as §4

[5] = test system: HindIII-digested lambda phage DNA; test: Real-time DNA binding by SYBR Gold fluorescence; conditions: 100 ng DNA, 10 µM peptide added at 0 or 14 min, room temperature
Experimental: as §2, §3

Compound: CC[C@H](C)[C@H](NC(=O)[C@H](CCCCN)NC(=O)[C@H](Cc1ccccc1)NC(=O)[C@H](CC(C)C)NC(=O)[C@@H]1CCCN1C(=O)[C@H](CCCCN)NC(=O)[C@H](CCCCN)NC(=O)[C@H](CO)NC(=O)[C@@H](N)CCCCN)C(=O)N[C@@H](Cc1c[nH]c2ccccc12)C(=O)N[C@@H](CCCCN)C(=O)N[C@@H](CS)C(=O)N[C@H](C(=O)N[C@@H](CCC(=O)O)C(=O)N[C@@H](CC(N)=O)C(=O)N[C@H](C(=O)N[C@@H](CS)C(=O)N[C@H](C(=O)N[C@@H](CC(C)C)C(=O)N[C@@H](Cc1c[nH]c2ccccc12)C(=O)N[C@@H](Cc1ccc(O)cc1)C(=O)N[C@@H](CCCCN)C(N)=O)C(C)C)C(C)C)C(C)C [NCR169C17–38] (H-KSKKPLFKIWKCVENVCVLWYK-NH2; N-terminus assumed)
- liposome binding ([1]; 2 mM Cardiolipin liposomes): bound strongly
- liposome binding ([1]; 2 mM DMPC liposomes): no binding
- antifungal activity (Cryptococcus neoformans): potent antifungal activity
- antifungal activity (Candida species): potent antifungal activity
- cytotoxicity [2]: non-cytotoxic
- sensitivity to Proteinase K treatment (Proteinase K): only partial sensitivity
- degradation of pre-formed biofilm ([3]; A. baumannii biofilm pre-formed 24 h, 24 h of treatment, Crystal Violet OD550): successful even at sub-MBC level
- MBC ([3]; pre-formed biofilm, read-out: MBC, Eradication test after 3 h): 6.3 µM (≈ 17.3 µg/mL)
- MBC ([3]; pre-formed biofilm, read-out: MBC, Eradication test after 24 h): 12.5 µM (≈ 34.2 µg/mL)
- concentration degrading the mature biofilm (sub-MBC level) ([3]; pre-formed biofilm, 72 h): 3.1 µM
- MBC after pre-incubation in human serum (A. baumannii): 6.3 µM (≈ 17.3 µg/mL)
- cytotoxicity [4]: non-cytotoxic
- MBC after pre-incubation in human serum (S. aureus): 3.1 µM (≈ 8.49 µg/mL)
- extent of SYBR Gold fluorescence signal reduction (hierarchy) [5]: NCR169C17–38 > NCR169 > NCR169_16–27 > NCR169_17–27

From article PMC12811501, “A plant-derived antimicrobial peptide with multiple mechanisms of action exhibiting antibacterial and antibiofilm activities comparable to or superior to polymyxin B” (Current Research in Microbial Sciences, 2025)
